Results reported in publication PMC3306180 (Journal of Medicinal Chemistry, 2012).
Like-named read-outs stand apart in the source and are kept apart here.

What was measured:
[1] = system: T. gondii; assay: T. gondii cell proliferation; type: cell-based, Toxoplasma gondii
[2] = system: HL-60 (neutrophil) cells; assay: Human cell growth inhibition assay, HL-60; details: concentrations up to 10 μM
[3] = system: CRL-8155 (lymphocytic) cells; assay: Human cell growth inhibition assay, CRL-8155; details: concentrations up to 10 μM
[4] = system: human kinases; type: biochemical
[5] = generally observed, human kinase panel of Table 4

Row | Structure (SMILES) | block of T. gondii cell invasion/proliferation [1] | inhibition of cell growth, HL-60 [2] | inhibition of cell growth, CRL-8155 [3] | differences between IC50 values for TgCDPK1 over human kinases [4, 5] | differences between IC50 values for TgCDPK1 over human kinases [4]
1 | CC(C)(C)n1ncc2c(N)ncnc21.Cl [Compound 1b] | do not block T. gondii cell invasion/proliferation |  |  |  | 
2 | Cl.Nc1ncnc2c1cnn2CC1CCNCC1 [Compound 1n] | do not block T. gondii cell invasion/proliferation |  |  |  | 
3 | COc1ccc2cc(-c3nn(C(C)C)c4ncnc(N)c34)ccc2c1.Cl [Compound 14a] |  | no inhibition of cell growth | no inhibition of cell growth |  | 
4 | COc1ccc2cc(-c3nn(CC4CCNCC4)c4ncnc(N)c34)ccc2c1.Cl [Compound 14n] |  | no inhibition of cell growth | no inhibition of cell growth | > 1000 fold | 
5 | CCOc1ccc2cc(-c3nn(C4CCN(C)CC4)c4ncnc(N)c34)ccc2c1.Cl [Compound 15h] |  | no inhibition of cell growth | no inhibition of cell growth | > 1000 fold | 
6 | CCOc1ccc2cc(-c3nn(CC4CCNCC4)c4ncnc(N)c34)ccc2c1.Cl [Compound 15n] |  | no inhibition of cell growth | no inhibition of cell growth |  | > 1000 fold
7 | CCOc1ccc2cc(-c3nn(CC4CCN(C)CC4)c4ncnc(N)c34)ccc2c1.Cl [Compound 15o] |  |  |  | > 1000 fold | 
8 | CCOc1ccc2cc(-c3nn(CC4CCNCC4)c4ncnc(N)c34)ccc2n1.Cl [Compound 16n] |  | no inhibition of cell growth | no inhibition of cell growth | > 1000 fold | 
